Laboratory results: patent publication US10758522B2, “Small molecule analogs of the nemo binding peptide” (THE SCRIPPS RESEARCH INSTITUTE, priority 2015, dated 2020)
“Also recorded” adds a separate entry of the source.

Experiments:
Ercc1−/Δ mice [1] = test: Systemic treatment of Ercc1−/Δ mice, intervertebral disc proteoglycan; type: in vivo, mouse; conditions: IP 3× a week, 10 mg/kg for 8 weeks
Method: The ability of the compounds to work systemically was also tested. In these experiments, Ercc1^−/Δ mice with accelerated aging (lifespan of 5 months) were treated systemically, 3× a week, by IP injection at a dose of 10 mg/kg for 8 weeks. Since we previously had shown that the NF-κB is a key factor in driving intervertebral disc degenerated, we assessed the effects of treatment on proteoglycan synthesis and content in the discus following treatment.

NF-κB [2] = test: EMSA of NF-κB DNA binding in C2C12 cells; type: cell-based, mouse; conditions: 200 μM
Method: (§1) To confirm that the NBD mimetics reduce IKK activity, the extent of phosphorylation of the IKK target, IκBα, in response to 10 ng/ml of TNF-α was determined by Western blot at 0, 5 and 10 min after TNF-α stimulation. […] To determine if the mimetics also reduce NF-κB DNA binding activity, electrophoretic mobility shift assay (EMSA) was conducted both in vivo and in vitro.
(§2) Cytoplasmic and nuclear fractions were extracted using the NE-PER nuclear and cytoplasmic extraction reagents (ThermoFisher) according to the manufacturer's instructions. The gel shift assay was performed by following the previously described method (41). In brief, 5 μg of nuclear extract was incubated with gel shift binding buffer and an α-^32P-deoxycytodine triphosphate-radiolabeled NF-κB probe for 20 min at room temperature (MP Biomedicals). The oligonucleotide sequences are as follows: NF-κB template, 5′-[…]-3′; NF-κB annealing, 5′-[…]-3′. The reaction product was separated on a 6% non-denaturing polyacrylamide gel.

[3] = Degradation in the presence of serum; type: in vitro ADME; conditions: data not shown
NF-κB [4] = test: EMSA of NF-κB DNA binding in skeletal muscle of mdx mice after acute treatment; type: in vivo, mouse; conditions: single ip injection at 10 mg/kg, 1 and 2 hours post-treatment
Method: We also tested the compounds for their ability to inhibit NF-κB activity acutely in a murine model of disease. For these experiments, a mouse model of Duchenne muscular dystrophy, which has elevated NF-κB activity in muscle, was treated with Zinc-13 (NBDA-1) and Zinc-5 (NBDA-2) and the level of NF-κB activity determined by gel shift analysis at 1 and 2 hours post-treatment.
as §1, §2

[5] = molecular target: T1, IKK complex (IKKß, IKKα and NEMO) (Homo sapiens, UniProt Q9Y6K9); test: Co-immunoprecipitation of NEMO with IKKß in 293 cells; type: cell-based; conditions: Zinc-5 at 4 hours, Zinc-13 at 1 hour, NBD peptide at 4 hours
T1 construct: analyzed by Western blot for the level of co-precipitated NEMO; endogenous in cells; host or cells: 293 (HEK293) cells
T1 sequence (Q9Y6K9 whole entry, one chain of several): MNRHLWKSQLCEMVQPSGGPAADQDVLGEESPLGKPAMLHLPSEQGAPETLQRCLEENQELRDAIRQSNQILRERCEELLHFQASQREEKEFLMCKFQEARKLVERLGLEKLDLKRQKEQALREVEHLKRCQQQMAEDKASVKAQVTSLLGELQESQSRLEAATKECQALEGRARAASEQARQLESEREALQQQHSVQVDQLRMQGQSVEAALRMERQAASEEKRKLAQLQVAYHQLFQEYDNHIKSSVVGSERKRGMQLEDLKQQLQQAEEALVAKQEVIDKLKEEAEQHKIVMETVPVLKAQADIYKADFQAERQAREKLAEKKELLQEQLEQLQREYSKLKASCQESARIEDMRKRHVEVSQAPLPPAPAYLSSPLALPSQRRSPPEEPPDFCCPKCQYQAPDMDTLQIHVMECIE
Source text: FIG. 8 is a bar graph showing the inhibition of TNFα by NBDA-1 (Zinc-13). […] In addition, we have examined the ability of the compounds to disrupt the IKK complex, comprised of IKKß, IKKα and NEMO.
A non-functional, related compound Zinc-7 had no effect.

Ercc1−/Δ mice [6] = test: Chronic treatment of Ercc1−/Δ mouse model of accelerated aging with SR12343; type: in vivo
Source text: FIG. 41 summarizes the regimen and endpoints for the study of the effects of NBD mimetics on aging using the Ercc1^−/Δ mouse model of accelerated aging
Thus these novel NBD mimetics could be used not only for treatment of inflammatory and degenerative diseases, but also aging.

[7] = system: K14-Cre+/−; Ercc1−/fl; Skh1−/− mice; test: Naked mouse skin photoaging study, topical treatment; type: in vivo
Method: Naked mice of strain K14-Cre^+/−; Ercc1^−/fl; Skh1^−/− were treated with SR12343 versus vehicle control, then exposed to UV light for […]. The NBD mimetic SR12343 and SR2460 were tested for their ability to reduce the effects of photoaging in a mouse model. To make analysis of skin aging easier, usually hairless mice are utilized. Previously studies have shown that exposure of the hairless Skh1^−/− mouse to UV results in skin aging over 5 months as measured by skin thickness, elastosis, collagen damage, synthesis and degradation, increased ratio of collagen III to I, increased GAGs, and wrinkles and sagging. To accelerate this photoaging process, we generated a mouse model where Ercc1-dependent DNA repair activity is eliminated in K14 expressing skin cells in the Skh1^−/− mice (K14-Cre^+/−; Ercc1^−/fl; Skh1^−/− mice). In these mice, chronic UV exposure gives rise to evidence of photoaging 6 times faster than in the Skh1^−/− mice, allowing for analysis of skin aging in 2-4 weeks (FIGS. 51 (A, B, and C).
For testing of drugs for effects on photoargng in the K14-Cre^+/−; Ercc1^−/fl; Skh1^−/− mice, the mice are first tattooed to outlined quadrants for drug treatment. The mice were then exposed to UV 3× (total of 1 kJ/m^2/wk) for 4 weeks in a tanning booth. This dose regiment is the equivalent of one year of sun exposure.
A 50 mg/ml solution of SR12343 was then prepared in a DMSO gel for topical application. The SR12343 gel was administered topically 5 times per week and mice exposed to UV 3× per week as indicated. It is important to note that the compound was administered following UV dosing to eliminate any anti-UV effects of the drug. At the midway point and at the end of the experiment, the mice were analyzed using a TEWL Meter for skin thickness, elasticity and hydration. At the time of sacrifice, skin sections are taken for analysis of the extent of cellular senescence by RT-PCR.

NF-κB [8] = test: Dual-luciferase (NF-κB firefly / SV40 Renilla) reporter assay in HEK293 cells; type: cell-based; conditions: Homo sapiens; inhibition of TNF-α-induced NF-κB activation, HEK293, luciferase assays at 0, 25, 50, 100 and 150 μM, GraphPad
Method: Thus seven rounds of structural modification and optimization were performed to improve bioactivity and stability and more than one hundred small molecules were tested (data not shown). […] To minimize the influence of drug toxicity on the screening assay, a renilla luciferase reporter driven by the SV40 promoter was cotransfected with the NF-κB luciferase reporter into HEK293 cells as a co-reporter for normalization.
Inhibitory effects of NBD mimetics on NF-κB activation were measured by luciferase assays at multiple concentrations: 0, 25, 50, 100 and 150 μM. IC50 of NBD mimetics was determined based on the dose-dependent curve by using GraphPad.
HEK293 cells grown in 10 cm plates were co-transfected with co-reporter of Renilla plasmid driven by SV40 and luciferase plasmid driven by NF-κB at the ratio of 1:3 with Lipofectamine 2000 (Invitrogen). Transiently transfected HEK293 were grown and treated as described above and subjected to a dual-luciferase reporter assay according to the manufacturer's instruction. Firefly luciferase activity was normalized to Renilla luciferase to get the relative luciferase activity.

Nc1ncccc1C(=O)OCC(=O)Nc1ccc(Cl)cc1F [NBDA-1, 2-((4-chloro-2-fluorophenyl)amino)-2-oxoethyl 2-aminonicotinate]
proteoglycan synthesis and content in the intervertebral disc (Ercc1−/Δ mice [1]): increased the proteoglycan content | TNFα-induced NF-κB DNA binding activity (EMSA) (NF-κB [2]): significantly decreased TNFα-induced NF-κB DNA binding activity | degradation in the presence of serum [3]: rapid degradation in the presence of serum | NF-κB DNA binding activity in quadriceps of mdx mice (NF-κB [4]; listed as Zinc-13, 10 mg/kg): reduced NF-κB DNA binding activity in the skeletal muscle (quadricep) | NF-κB DNA binding activity in quadriceps of mdx mice (NF-κB [4]; listed as compound 12909780, 10 mg/kg): inhibited NF-κB DNA binding activity in quadriceps | level of NEMO co-immunoprecipitated with IKKß [5]: reduced the level of co-immunoprecipitated NEMO; also recorded: disrupt the interaction between IKKß and IKKgamma

O=C(CNc1ccc(Cl)cn1)NCCc1cccc(Br)c1 [SR12343, N-(3-bromophenethyl)-2-((5-chloropyridin-2-yl)amino)acetamide]
glycosaminoglycan (GAG) in intervertebral disc nucleus pulposus (Ercc1−/Δ mice [6]): improves pathology in the intervertebral disc as determined by measuring proteoglycans (GAG) | healthspan (Ercc1−/Δ mice [6]): extension of healthspan | clearance of blood glucose (oral glucose tolerance test) (Ercc1−/Δ mice [6]; 15 wk-old mice): improves clearance of glucose in an oral glucose tolerance test | senescence (Ercc1−/Δ mice [6]; 15 wk-old mice): reduces senescence | aging symptoms associated with frailty (Ercc1−/Δ mice [6]; different ages): reduces the onset of symptoms associated with frailty | overall score of the aging symptoms (Ercc1−/Δ mice [6]; different ages): reduces the onset of symptoms with chronic treatment | body fat percentage (NMR) (Ercc1−/Δ mice [6]; male mice): reduces loss of fat in male mice | forelimb grip strength (Ercc1−/Δ mice [6]; male mice): improves grip strength in male mice | overall appearance of the skin, wrinkles ([7]; 50 mg/ml in DMSO gel, topical 5 times per week, UV 3× per week): reducing the number and depth of the wrinkles | skin elasticity ([7]; topical gel, UV-exposed): restores skin elasticity | skin hydration ([7]; topical gel, UV-exposed): improved skin hydration | expression of senescent marker p16 in skin ([7]; topical gel, UV-exposed, RT-PCR): lowered the expression of senescent markers such as p16 | molecular markers of skin aging and appearance of the skin ([7]; topical treatment): improved molecular markers of skin aging as well as the overall appearance of the skin

O=C(CNCCc1cc(F)cc(F)c1)Nc1ccc(Cl)cn1 [SR12460, N-(5-chloropyridin-2-yl)-2-((3,5-difluorophenethyl)amino)acetamide]
IC50 (NF-κB [8]): 11.2 µM
